Experimental data from paper PMC10986598, “Investigating inhibitors of 1-deoxy-D-xylulose 5-phosphate synthase in a mouse model of UTI” (Microbiology Spectrum, 2024).
Where two headings read alike, the source gives them in different places.

Assays:
UPEC strain CFT073 = assay: In vivo ascending UTI assay (prophylaxis); parameters: species or system Escherichia coli in C3H/HeN mice; conditions: gentamicin 10 mg/kg IP 30 min prior to inoculation
Description: Female mice were injected subcutaneously in the flank with 2.5 mg of MPA (150 mg/mL, diluted in sterile saline) 7 days prior to inoculation ([60]). Mice were dosed vaginally with 30 µL of sterile saline lavage fluid immediately prior to inoculation. The fluid was collected, placed on a slide, heat fixed, Gram stained, and assessed to determine the estrous cycle stage of each mouse as previously described ([61]).
Six-week-old female C3H/HeN mice were inoculated with UPEC as previously described ([28]). Briefly, UPEC strain CFT073 (ATCC designation: BAA-2503) was streaked on LB agar from a frozen glycerol stock and grown overnight at 37°C. Following overnight incubation, three to five colonies were picked and subcultured into 10 mL of sterile LB, and the culture was incubated statically overnight at 37°C. The culture was diluted 1:1,000 (25 µL of culture into 25 mL of sterile LB) and incubated statically for 24 h at 37°C to promote the growth of bacteria with type-1 pili expression. The resulting 25 mL inoculum was centrifuged at 4,200 × g for 20 min at 4°C. The supernatant was removed, and the cell pellet was resuspended in 10 mL of sterile PBS. The OD600 was adjusted to 1.0 by the addition of PBS to give a cell density of approximately 4 × 10^7 to 1 × 10^8 CFUs per 50 µL, the volume of the inoculum. Cell counts were validated by plating a dilution of the inoculum solution and enumerating following overnight incubation.
Urinary catheters were assembled by threading 30G needles with 0.28 mm inner diameter polyethylene tubing to create a soft tip. Catheter tips were dipped in lubricant immediately before inoculation. During catheterization, urine was aspirated from the bladder prior to inoculation with 50 µL of UPEC inoculum, prepared as described above. Mice were housed with their drug-dosed cohort and dosed intraperitoneally according to each experiment’s dosing regimen as shown in the figures. Dosing regimen for BAP trial 1 (Fig. 7b)consisted of IP administration of BAP (300 mg/kg) 30 min before inoculation; dosing regimen for BAP trial 2 (Fig. 7c) consisted of IP administration of BAP (600 mg/kg) 30 min before inoculation followed with IP doses of BAP (300 mg/kg) at 1 and 3 hpi; dosing regimen for BAP trial 3 and the pro-hpAP trial (Fig. 7d) consisted of IP administration of BAP (600 mg/kg) or pro-hpAP (60 mg/kg) 30 min before inoculation followed with IP doses of BAP (300 mg/kg) or pro-hpAP (30 mg/kg) at 1, 3, and 24 hpi; dosing regimen 4 (Fig. S3) consisted of IP administration of BAP (600 mg/kg) 30 min before inoculation followed with IP doses of BAP (300 mg/kg) at 1, 3, 6, 10, 22, 26, and 30 hpi. Gentamicin diluted in sterile PBS was used as a positive control and was administered to mice at 10 mg/kg IP 30 min prior to inoculation in all experiments.
After 48 h, mice were anesthetized by isoflurane inhalation and sacrificed by cervical dislocation. Bladders were harvested, added to 1 mL sterile PBS, and homogenized with a hand-held homogenizer in a biosafety cabinet. Tissue homogenates were serially-diluted (five 10-fold dilutions), and 100 µL of each dilution was plated onto LB plates and enumerated after a 24 h incubation at 37°C, yielding an effective detection range of 1 × 10^2–150 × 10^8 CFU/mL. In a few cases, bacterial counts fell below the lower limit of detection or above the upper limit of detection and are reported as 0 CFU/mL or conservatively 200 × 10^8 CFU/mL, respectively.

[1] = In vivo PK studies in CD-1 mice; conditions: for AUC: pro-hpAP 30 mg/kg IP; for Cmax / AUC(0-t): ip, 30 mg/kg; for AUC(0-t): read-out: AUC0-t
Description: For pharmacokinetic analysis, both male (n = 2) and female (n = 2) CD1 mice were dosed with either BAP or pro-hpAP by intraperitoneal (IP) route or administration (100 mg/kg) and (30 mg/kg), respectively. Blood and tissue samples were collected at predetermined time points (0–6 h post-dose). Plasma was generated from blood by low-speed centrifugation (3,000 × g), and all samples were stored at −80°C until bioanalysis.
Non-compartmental-analysis module in WinNonlin was used to assess blood pharmacokinetic parameters including max concentrations (Cmax), time to Cmax (Tmax), area under the curve (AUC), area extrapolated to infinity (AUC0–∞), and terminal half-life (t1/2). In addition, the tissue penetration index was measured as the ratio of AUCtissue to AUCplasma.
To quantify BAP and pro-hpAP, methanol containing 0.5 µM losartan as an internal standard was added 5 µL/µL plasma or 5 µL/mg tissue in microcentrifuge tubes. Tissue was further homogenized using a Spex Geno/Grinder with stainless steel beads for 3 min at 1,500 RPM. Homogenates from untreated animals were spiked with the analytes from 100 to 0.01 nmol/g tissue by serial dilution to generate a standard curve. Plasma and tissue homogenates were then vortexed and centrifuged (16,000 × g for 5 min at 4°C) to precipitate proteins. Supernatants were transferred to a 96 well plate and 2 µL was injected on a Accela 1250 LC coupled to a Vantage triple quadrupole mass spectrometer (Thermo Fisher Scientific Inc., Waltham MA). Samples were separated on an Agilent EclipsePlus C18 RRHD (1.8 µm) 2.1 × 100 mm column with mobile phases consisting of water +0.1% formic acid (A), and acetonitrile + 0.1% formic acid (B). […] Samples were introduced to the source through heated ion spray with the capillary temperature setting at 350°C, spray voltage of 4 kV and S-Lens RF of 51. Nitrogen was used as the sheath and auxiliary gas with the settings of 50 and 1 arbitrary units, respectively. For BAP, the instrument was operated in negative ion mode scanning for transitions of 179.1 > 63.1, 79.1 (BAP) and 420.9 > 179.1, 127.0 (losartan) which were acquired with collision energies setting of 17; 55 and 25; 41 CE, respectively. For pro-hpAP, the instrument was operated in positive ion mode scanning for transitions of 346.2 to 86.1 and 143.2 (pro-hpAP) and 422.9 to 207.1 and 180.1 (losartan) which were acquired with collision energies setting of 29; 17 and 37; 22 CE, respectively. Peaks were quantified with Xcalibur software.

[2] = both sexes, CD1, mouse, in vivo, Bladder, single 30 mg/kg IP dose of pro-hpAP, analyte = labelled substance
[3] = both sexes, CD1, mouse, in vivo, Brain, single 30 mg/kg IP dose of pro-hpAP, analyte = labelled substance
[4] = both sexes, CD1, mouse, in vivo, Kidney, single 30 mg/kg IP dose of pro-hpAP, analyte = labelled substance

Row | SMILES | mice with bacterial burden below the limit of detection (LOD) (UPEC strain CFT073) | AUC ([1]; bladder, analyte = labelled substance (pro-hpAP or released hpAP)) [nmol·h/g] | Cmax [1, 2] [µM] | AUC(0-t) [1, 2] [µM·h] | Cmax [1, 3] [µM] | AUC(0-t) [1, 3] [µM·h] | Cmax [1, 4] [µM] | AUC(0-t) [1, 4] [µM·h] | Cmax ([1]; both sexes, CD1, mouse, in vivo, Plasma, single 30 mg/kg IP dose of pro-hpAP, analyte = labelled substance (pro-hpAP or released hpAP)) [µM] | AUC(0-t) ([1]; both sexes, CD1, mouse, in vivo, Plasma, single 30 mg/kg IP dose of pro-hpAP, analyte = labelled substance) [µM·h] | Tmax ([1]; both sexes, CD1, mouse, in vivo, Kidney, single 30 mg/kg IP dose of pro-hpAP, analyte = labelled substance, read-out: Tmax) [min] | AUC ([1]; both sexes, CD1, mouse, in vivo, plasma, analyte = labelled substance, read-out: AUC) [µM·h] | AUC ([1]; brain, analyte = labelled substance) [nmol·h/g] | AUC ([1]; kidney, analyte = labelled substance) [nmol·h/g]
1 | CNC(C)C1CCC(N)C(OC2C(N)CC(N)C(OC3OCC(C)(O)C(NC)C3O)C2O)O1 (centres unmarked) [gentamicin, reference compound] | 5 of 8 | – | – | – | – | – | – | – | – | – | – | – | – | –
2 | C#CCCOP(=O)(O)C(C)=O [hpAP, homopropargyl acetylphosphonate] | – | 366 ± 31 | 586 ± 78 | 366 ± 31 | 2.18 ± 0.16 | 1.87 ± 0.21 | 50.2 ± 7.7 | 16.3 ± 1.4 | 110 ± 11 | 38.8 ± 2.7 | 15 | 38.8 ± 2.7 | 1.87 ± 0.21 | 16.3 ± 1.4
